# Experimental data published in PubChem BioAssay (NCI).
#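 Assay format: 96-well plates, 48-hour exposure. At the GI50, growth is halved. TGI denotes the concentration required for complete inhibition of growth.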
# Legend:
# Experiment in all cases: NCI anticancer screen, dose series, 48 h
# HCC-2998 colon = tested on: HCC-2998 colon
# MDA-MB-435 = tested on: MDA-MB-435
# OVCAR-5 ovarian = tested on: OVCAR-5 ovarian
# K-562 leukemia = tested on: K-562 leukemia
# HS 578T breast = tested on: HS 578T breast
# SF-295 CNS = tested on: SF-295 CNS
# SK-MEL-28 melanoma = tested on: SK-MEL-28 melanoma
# MDA-MB-231 breast = tested on: MDA-MB-231 breast
# SN12C renal = tested on: SN12C renal
# HCT-15 colon = tested on: HCT-15 colon
# NCI/ADR-RES ovarian = tested on: NCI/ADR-RES ovarian
# NCI-H460 lung = tested on: NCI-H460 lung
# OVCAR-4 ovarian = tested on: OVCAR-4 ovarian
# LOX IMVI melanoma = tested on: LOX IMVI melanoma
# HCT-116 colon = tested on: HCT-116 colon
# ACHN renal = tested on: ACHN renal
# HL-60(TB) leukemia = tested on: HL-60(TB) leukemia
# U251 CNS = tested on: U251 CNS
# IGROV1 ovarian = tested on: IGROV1 ovarian
# TK-10 renal = tested on: TK-10 renal
# KM12 colon = tested on: KM12 colon
# A549 NSCLC = tested on: A549 NSCLC
# NCI-H226 lung = tested on: NCI-H226 lung
# SW-620 colon = tested on: SW-620 colon
# SR leukemia = tested on: SR leukemia
# OVCAR-3 ovarian = tested on: OVCAR-3 ovarian
# UO-31 renal = tested on: UO-31 renal
# SK-MEL-5 melanoma = tested on: SK-MEL-5 melanoma
# M14 melanoma = tested on: M14 melanoma
# EKVX NSCLC = tested on: EKVX NSCLC
# SF-539 CNS = tested on: SF-539 CNS
# SF-268 CNS = tested on: SF-268 CNS
# CAKI-1 renal = tested on: CAKI-1 renal
# HOP-92 NSCLC = tested on: HOP-92 NSCLC
# MALME-3M melanoma = tested on: MALME-3M melanoma
# 786-0 renal = tested on: 786-0 renal
# SNB-75 CNS = tested on: SNB-75 CNS
# MOLT-4 leukemia = tested on: MOLT-4 leukemia
# CCRF-CEM leukemia = tested on: CCRF-CEM leukemia
# UACC-257 melanoma = tested on: UACC-257 melanoma
# NCI-H522 lung = tested on: NCI-H522 lung
# SK-OV-3 ovarian = tested on: SK-OV-3 ovarian
# NCI-H23 lung = tested on: NCI-H23 lung
# T-47D breast = tested on: T-47D breast
# PC-3 prostate = tested on: PC-3 prostate
# UACC-62 melanoma = tested on: UACC-62 melanoma
# SNB-19 CNS = tested on: SNB-19 CNS
# COLO 205 colon = tested on: COLO 205 colon
# MCF7 breast = tested on: MCF7 breast
# SK-MEL-2 melanoma = tested on: SK-MEL-2 melanoma
# OVCAR-8 ovarian = tested on: OVCAR-8 ovarian
# A498 renal = tested on: A498 renal
# HOP-62 NSCLC = tested on: HOP-62 NSCLC
# BT-549 breast = tested on: BT-549 breast
# RXF 393 renal = tested on: RXF 393 renal
# DU-145 prostate = tested on: DU-145 prostate
# RPMI-8226 leukemia = tested on: RPMI-8226 leukemia
# HT29 colon = tested on: HT29 colon
smiles,measurement,setting,value
COc1ccc(C2C(C#N)=C(N)Oc3c2sc2c(C)cccc32)cc1 (stereo unspecified),GI50,HCC-2998 colon,1030 nM
same,TGI,HCC-2998 colon,7390 nM
same,GI50,MDA-MB-435,188 nM
same,TGI,MDA-MB-435,441 nM
same,GI50,OVCAR-5 ovarian,636 nM
same,TGI,OVCAR-5 ovarian,14200 nM
same,GI50,K-562 leukemia,119 nM
same,TGI,K-562 leukemia,> 100000 nM
same,GI50,HS 578T breast,300 nM
same,TGI,HS 578T breast,2280 nM
same,GI50,SF-295 CNS,293 nM
same,TGI,SF-295 CNS,2400 nM
same,GI50,SK-MEL-28 melanoma,3830 nM
same,TGI,SK-MEL-28 melanoma,21700 nM
same,GI50,MDA-MB-231 breast,1220 nM
same,TGI,MDA-MB-231 breast,10600 nM
same,GI50,SN12C renal,578 nM
same,TGI,SN12C renal,11300 nM
same,GI50,HCT-15 colon,408 nM
same,TGI,HCT-15 colon,7320 nM
same,GI50,NCI/ADR-RES ovarian,332 nM
same,TGI,NCI/ADR-RES ovarian,5750 nM
same,GI50,NCI-H460 lung,384 nM
same,TGI,NCI-H460 lung,10600 nM
same,GI50,OVCAR-4 ovarian,2240 nM
same,TGI,OVCAR-4 ovarian,22500 nM
same,GI50,LOX IMVI melanoma,592 nM
same,TGI,LOX IMVI melanoma,10800 nM
same,GI50,HCT-116 colon,362 nM
same,TGI,HCT-116 colon,6960 nM
same,GI50,ACHN renal,757 nM
same,TGI,ACHN renal,14700 nM
same,GI50,HL-60(TB) leukemia,230 nM
same,TGI,HL-60(TB) leukemia,1060 nM
same,GI50,U251 CNS,489 nM
same,TGI,U251 CNS,16000 nM
same,GI50,IGROV1 ovarian,449 nM
same,TGI,IGROV1 ovarian,14500 nM
same,GI50,TK-10 renal,9490 nM
same,TGI,TK-10 renal,34200 nM
same,GI50,KM12 colon,460 nM
same,TGI,KM12 colon,14500 nM
same,GI50,A549 NSCLC,724 nM
same,TGI,A549 NSCLC,21600 nM
same,GI50,NCI-H226 lung,590 nM
same,TGI,NCI-H226 lung,15800 nM
same,GI50,SW-620 colon,441 nM
same,TGI,SW-620 colon,16200 nM
same,GI50,SR leukemia,215 nM
same,TGI,SR leukemia,15000 nM
same,GI50,OVCAR-3 ovarian,414 nM
same,TGI,OVCAR-3 ovarian,12800 nM
same,GI50,UO-31 renal,340 nM
same,TGI,UO-31 renal,13500 nM
same,GI50,SK-MEL-5 melanoma,427 nM
same,TGI,SK-MEL-5 melanoma,13200 nM
same,GI50,M14 melanoma,304 nM
same,TGI,M14 melanoma,13400 nM
same,GI50,EKVX NSCLC,677 nM
same,TGI,EKVX NSCLC,21300 nM
same,GI50,SF-539 CNS,297 nM
same,TGI,SF-539 CNS,1240 nM
same,GI50,SF-268 CNS,1200 nM
same,TGI,SF-268 CNS,21600 nM
same,GI50,CAKI-1 renal,381 nM
same,TGI,CAKI-1 renal,16700 nM
same,GI50,HOP-92 NSCLC,1130 nM
same,TGI,HOP-92 NSCLC,11100 nM
same,GI50,MALME-3M melanoma,431 nM
same,TGI,MALME-3M melanoma,21000 nM
same,GI50,786-0 renal,621 nM
same,TGI,786-0 renal,14600 nM
same,GI50,SNB-75 CNS,221 nM
same,TGI,SNB-75 CNS,709 nM
same,GI50,MOLT-4 leukemia,524 nM
same,TGI,MOLT-4 leukemia,9430 nM
same,GI50,CCRF-CEM leukemia,341 nM
same,TGI,CCRF-CEM leukemia,> 64800 nM
same,GI50,UACC-257 melanoma,14300 nM
same,TGI,UACC-257 melanoma,42100 nM
same,GI50,NCI-H522 lung,369 nM
same,TGI,NCI-H522 lung,6010 nM
same,GI50,SK-OV-3 ovarian,613 nM
same,TGI,SK-OV-3 ovarian,41700 nM
same,GI50,NCI-H23 lung,474 nM
same,TGI,NCI-H23 lung,12800 nM
same,GI50,T-47D breast,552 nM
same,TGI,T-47D breast,43700 nM
same,GI50,PC-3 prostate,346 nM
same,TGI,PC-3 prostate,13000 nM
same,GI50,UACC-62 melanoma,375 nM
same,TGI,UACC-62 melanoma,11900 nM
same,GI50,SNB-19 CNS,520 nM
same,TGI,SNB-19 CNS,15200 nM
same,GI50,COLO 205 colon,933 nM
same,TGI,COLO 205 colon,8680 nM
same,GI50,MCF7 breast,322 nM
same,TGI,MCF7 breast,12200 nM
same,GI50,SK-MEL-2 melanoma,3330 nM
same,TGI,SK-MEL-2 melanoma,26500 nM
same,GI50,OVCAR-8 ovarian,547 nM
same,TGI,OVCAR-8 ovarian,17400 nM
same,GI50,A498 renal,199 nM
same,TGI,A498 renal,772 nM
same,GI50,HOP-62 NSCLC,544 nM
same,TGI,HOP-62 NSCLC,20800 nM
same,GI50,BT-549 breast,956 nM
same,TGI,BT-549 breast,7830 nM
same,GI50,RXF 393 renal,234 nM
same,TGI,RXF 393 renal,628 nM
same,GI50,DU-145 prostate,596 nM
same,TGI,DU-145 prostate,18600 nM
same,GI50,RPMI-8226 leukemia,384 nM
same,TGI,RPMI-8226 leukemia,5530 nM
same,GI50,HT29 colon,816 nM
same,TGI,HT29 colon,12700 nM
